Test results taken from patent US7582645B2, “Pyrimidine derivatives for treatment of hyperproliferative disorders” (Bayer Pharmaceuticals Corporation, priority 2003, dated 2009).
Where a name gives a salt, the structure may show the parent alone.

System: HCT116 cells
Test: HCT116 cytotoxic activity assay (Alamar Blue, 72 h)
Assay type: cell-based
Details: Homo sapiens, HCT-116, 72 h compound exposure, greater than 500 nM but less than or equal to 2 μM
Protocol: Representative compounds of this invention were tested for cytotoxicity using the above-described assay procedure with the following results: […]

Question: Which IC50 does the source give for `Nc1nc(Nc2ccc(Oc3cncnc3)cc2)cc(-c2ccccc2)n1` [Example 61, 6-phenyl-N4*-[4-(pyrimidin-5-yloxy)phenyl] pyrimidine-2,4-diamine] here?
Answer: The IC50 was 0.5 to 2 µM.

Question: With `Nc1nc(Nc2ccc(Oc3ccnc(O)c3)cc2)cc(-c2ccccc2)n1` [Example 65, 4-{4-[(2-amino-6-phenylpyrimidin-4-yl)amino]phenoxy}pyridin-2-ol] as the compound, how does the IC50 read?
Answer: Its IC50 is 0.5 to 2 µM.

Question: For `N#Cc1ccc(Oc2ccc(Nc3cc(-c4ccccc4)nc(N)n3)cc2)cc1` [Example 68, 4-{4-[(2-amino-6-phenylpyrimidin-4-yl)amino]phenoxy} benzonitrile], which IC50 is on record?
Answer: The IC50 was 0.5 to 2 µM.

Question: With `CNC(=O)c1cc(Oc2ccc(Nc3cc(-c4ccccc4)nc(N)n3)cc2)ccn1` [Example 70, 4-{4-[(2-amino-6-phenylpyrimidin-4-yl)amino]phenoxy}-N-methylpyridine-2-carboxamide] as the compound, how does the IC50 read?
Answer: Its IC50 is 0.5 to 2 µM.

Question: With `NC(=O)c1cc(Oc2ccc(Nc3cc(-c4ccc(F)cc4)nc(N)n3)cc2)ccn1` [Example 73, 4-(4-{[2-amino-6-(4-fluorophenyl)pyrimidin-4-yl]amino}phenoxy) pyridine-2-carboxamide] as the compound, how does the IC50 read?
Answer: Its IC50 is 0.5 to 2 µM.

Question: How did the IC50 turn out when `N#Cc1cc(Oc2ccc(Nc3cc(-c4ccc(F)cc4)nc(N)n3)cc2)ccn1` [Example 75, 4-(4-{[2-amino-6-(4-fluorophenyl)pyrimidin-4-yl]amino}phenoxy) pyridine-2-carbonitrile] was run?
Answer: The IC50 was 0.5 to 2 µM.

Question: For `Nc1nc(Nc2ccc(Oc3ccnc(C(=O)NC4CN5CCC4CC5)c3)cc2)cc(-c2ccccc2)n1` (stereo not shown) [Example 79, 4-{4-[(2-amino-6-phenylpyrimidin-4-yl)amino]phenoxy}-N-1-azabicyclo[2.2.2]oct-3-ylpyridine-2-carboxamide trifluoroacetate], which IC50 is on record?
Answer: Its IC50 is 0.5 to 2 µM.

Question: For `CN(C)CCOc1cc(Oc2ccc(Nc3cc(-c4ccccc4)nc(N)n3)cc2)ccn1` [Example 85, N^4-[4-({2-[2-(dimethylamino)ethoxy]pyridin-4-yl}oxy)phenyl]-6-phenylpyrimidine-2,4-diamine], which IC50 is on record?
Answer: The IC50 was 0.5 to 2 µM.

Question: `Cc1ccc(Cc2ccc(Nc3cc(-c4ccccc4)nc(N)n3)cc2)cc1` [Example 89, N^4-[4-(4-methylbenzyl)phenyl]-6-phenylpyrimidine-2,4-diamine] was tested. Which IC50 did it give?
Answer: Its IC50 is 0.5 to 2 µM.

Question: Which IC50 does the source give for `COc1ccc(Cc2ccc(Nc3cc(-c4ccccc4)nc(N)n3)cc2)cc1` [Example 90, N^4-[4-(4-methoxybenzyl)phenyl]-6-phenylpyrimidine-2,4-diamine] here?
Answer: The IC50 was 0.5 to 2 µM.

Question: For `Nc1nc(Nc2ccc(Cc3ccc(F)cc3)cc2)cc(-c2ccccc2)n1` [Example 91, N^4-[4-(4-fluorobenzyl)phenyl]-6-phenylpyrimidine-2,4-diamine], which IC50 is on record?
Answer: Its IC50 is 0.5 to 2 µM.

Question: For `Nc1nc(Nc2ccc(Oc3ccnc(CNC(=O)N4CCOCC4)c3)cc2)cc(-c2ccccc2)n1` [Example 100, N-[(4-{4-[(2-amino-6-phenylpyrimidin-4-yl)amino]phenoxy}pyridin-2-yl)methyl]morpholine-4-carboxamide], which IC50 is on record?
Answer: The IC50 was 0.5 to 2 µM.

Question: How did the IC50 turn out when `Nc1nc(Nc2ccc(Oc3cc(N4CCOCC4)ccn3)cc2)cc(-c2ccccc2)n1` [Example 105, N4*-{4-[(4-morpholin-4-ylpyridin-2-yl)oxy]phenyl}-6-phenylpyrimidine-2,4-diamine] was run?
Answer: Its IC50 is 0.5 to 2 µM.

Question: With `CN1CCN(c2ccnc(Oc3ccc(Nc4cc(-c5ccccc5)nc(N)n4)cc3)c2)CC1` [Example 107, N4*-(4-{[4-(4-methylpiperazin-1-yl)pyridin-2-yl]oxy}phenyl)-6-phenylpyrimidine-2,4-diamine] as the compound, how does the IC50 read?
Answer: The IC50 was 0.5 to 2 µM.

Question: With `COCCN(CCOC)c1ccnc(Oc2ccc(Nc3cc(-c4ccccc4)nc(N)n3)cc2)c1` [Example 109, N4*-[4-({4-[bis(2-methoxyethyl)amino]pyridin-2-yl}oxy)phenyl]-6-phenylpyrimidine-2,4-diamine] as the compound, how does the IC50 read?
Answer: Its IC50 is 0.5 to 2 µM.

Question: For `Nc1nc(Nc2ccc(Oc3ccnc(C(F)(F)F)c3)cc2)cc(-c2ccc(Cl)c(Cl)c2)n1` [Example 112, 6-(3,4-dichlorophenyl)-N4*-(4-{[2-(trifluoromethyl)pyridin-4-yl]oxy}phenyl)pyrimidine-2,4-diamine], which IC50 is on record?
Answer: Its IC50 is 0.5 to 2 µM.

Question: `Nc1nc(Nc2ccc(Oc3ccnc(Cl)c3)cc2)cc(-c2cccc([N+](=O)[O-])c2)n1` [Example 115, N4*-{4-[(2-chloropyridin-4-yl)oxy]phenyl}-6-(3-nitrophenyl)pyrimidine-2,4-diamine] was tested. Which IC50 did it give?
Answer: The IC50 was 0.5 to 2 µM.

Same assay, conditions: Homo sapiens, HCT-116, 72 h compound exposure, greater than 2 μM

Question: Which IC50 does the source give for `CNC(=O)c1cc(Oc2ccc(Nc3cc(-c4ccc(F)cc4)nc(N)n3)cc2)ccn1` [Example 71, 4-(4-{[2-amino-6-(4-fluorophenyl)pyrimidin-4-yl]amino}phenoxy)-N-methylpyridine-2-carboxamide] here?
Answer: The IC50 was greater than 2 µM.

Question: How did the IC50 turn out when `CNC(=O)c1cc(Oc2cccc(Nc3cc(-c4ccc(F)cc4)nc(N)n3)c2)ccn1` [Example 72, 4-(3-{[2-amino-6-(4-fluorophenyl)pyrimidin-4-yl]amino}phenoxy)-N-methylpyridine-2-carboxamide] was run?
Answer: The IC50 was greater than 2 µM.

Question: For `NC(=O)c1cc(Oc2cccc(Nc3cc(-c4ccc(F)cc4)nc(N)n3)c2)ccn1` [Example 74, 4-(3-{[2-amino-6-(4-fluorophenyl)pyrimidin-4-yl]amino}phenoxy) pyridine-2-carboxamide], which IC50 is on record?
Answer: The IC50 was greater than 2 µM.

Question: With `CNC(=O)c1cc(Oc2cccc(Nc3cc(-c4ccc(OC)cc4)nc(N)n3)c2)ccn1` [Example 77, 4-(3-{[2-amino-6-(4-methoxyphenyl)pyrimidin-4-yl]amino}phenoxy)-N-methylpyridine-2-carboxamide] as the compound, how does the IC50 read?
Answer: Its IC50 is greater than 2 µM.

Question: `CCCCOc1cc(Oc2ccc(Nc3cc(-c4ccccc4)nc(N)n3)cc2)ccn1` [Example 83, N4*-{4-[(2-butoxypyridin-4-yl)oxy]phenyl}-6-phenylpyrimidine-2,4-diamine] was tested. Which IC50 did it give?
Answer: Its IC50 is greater than 2 µM.

Question: `CC(=O)c1ccc(Oc2ccc(Nc3cc(-c4ccccc4)nc(N)n3)cn2)cc1` [Example 87, 1-[4-({5-[(2-amino-6-phenylpyrimidin-4-yl)amino]pyridin-2-yl}oxy)phenyl]ethanone] was tested. Which IC50 did it give?
Answer: The IC50 was greater than 2 µM.

Question: For `Nc1nc(Nc2ccc(Oc3cc(N4CCCCC4)ccn3)cc2)cc(-c2ccccc2)n1` [Example 106, 6-phenyl-N4*-{4-[(4-piperidin-1-ylpyridin-2-yl)oxy]phenyl}pyrimidine-2,4-diamine], which IC50 is on record?
Answer: Its IC50 is greater than 2 µM.

Question: `Nc1nc(Nc2ccc(Oc3cc(N(CCO)CCO)ccn3)cc2)cc(-c2ccccc2)n1` [Example 108, 2,2′-[(2-{4-[(2-amino-6-phenylpyrimidin-4-yl)amino]phenoxy}pyridin-4-yl)imino]diethanol] was tested. Which IC50 did it give?
Answer: The IC50 was greater than 2 µM.

Question: How did the IC50 turn out when `CCC(CC)NCc1cc(Oc2ccc(Nc3cc(-c4ccccc4)nc(N)n3)cc2)ccn1` [Example 110, N4*-{4-[(2-{[(1-ethylpropyl)amino]methyl}pyridin-4-yl)oxy]phenyl}-6-phenylpyrimidine-2,4-diamine] was run?
Answer: The IC50 was greater than 2 µM.

Question: With `Nc1nc(Nc2ccc(Oc3ccnc(CNC4CCCCC4)c3)cc2)cc(-c2ccccc2)n1` [Example 111, N4*-[4-({2-[(cyclohexylamino)methyl]pyridin-4-yl}oxy)phenyl]-6-phenylpyrimidine-2,4-diamine] as the compound, how does the IC50 read?
Answer: Its IC50 is greater than 2 µM.

Same assay, conditions: Homo sapiens, HCT-116, 72 h compound exposure, less than or equal to 500 nM

Question: How did the IC50 turn out when `Nc1ccc(Oc2ccc(Nc3cc(-c4ccccc4)nc(N)n3)cc2)cc1` [Example 62, N^4-[4-(4-aminophenoxy)phenyl]-6-phenylpyrimidine-2,4-diamine] was run?
Answer: The IC50 was no more than 0.5 µM.

Question: `Nc1nc(Nc2ccc(Oc3cc(Br)ccn3)cc2)cc(-c2ccccc2)n1` [Example 63, N4*-{4-[(4-bromopyridin-2-yl)oxy]phenyl}-6-phenylpyrimidine-2,4-diamine] was tested. Which IC50 did it give?
Answer: The IC50 was no more than 0.5 µM.

Question: Which IC50 does the source give for `Nc1nc(Nc2ccc(Oc3ccnc(F)c3)cc2)cc(-c2ccccc2)n1` [Example 64, N4*-{4-[(2-fluoropyridin-4-yl)oxy]phenyl}-6-phenylpyrimidine-2,4-diamine trifluoroacetate] here?
Answer: The IC50 was no more than 0.5 µM.

Question: For `Nc1nc(Nc2ccc(Oc3ccnc(Cl)c3)cc2F)cc(-c2ccccc2)n1` [Example 66, N4*-{4-[(2-chloropyridin-4-yl)oxy]-2-fluorophenyl}-6-phenylpyrimidine-2,4-diamine], which IC50 is on record?
Answer: Its IC50 is no more than 0.5 µM.

Question: Which IC50 does the source give for `Nc1nc(Nc2ccc(Oc3ccnc(C(F)(F)F)c3)cc2F)cc(-c2ccccc2)n1` [Example 67, N4*-(2-fluoro-4-{[2-(trifluoromethyl)pyridin-4-yl]oxy}phenyl)-6-phenylpyrimidine-2,4-diamine] here?
Answer: Its IC50 is no more than 0.5 µM.

Question: How did the IC50 turn out when `NC(=O)c1cc(Oc2ccc(Nc3cc(-c4ccccc4)nc(N)n3)cc2)ccn1` [Example 69, 4-{4-[(2-amino-6-phenylpyrimidin-4-yl)amino]phenoxy} pyridine-2-carboxamide] was run?
Answer: The IC50 was no more than 0.5 µM.

Question: With `CNC(=O)c1cc(Oc2cccc(Nc3cc(-c4cccc(OC)c4)nc(N)n3)c2)ccn1` [Example 76, 4-(3-{[2-amino-6-(3-methoxyphenyl)pyrimidin-4-yl]amino}phenoxy)-N-methylpyridine-2-carboxamide] as the compound, how does the IC50 read?
Answer: The IC50 was no more than 0.5 µM.

Question: Which IC50 does the source give for `Nc1nc(Nc2ccc(Oc3ccnc(C(=O)NCC(O)CO)c3)cc2)cc(-c2ccccc2)n1` (stereo not shown) [Example 80, 4-{4-[(2-amino-6-phenylpyrimidin-4-yl)amino]phenoxy}-N-(2,3-dihydroxypropyl)pyridine-2-carboxamide] here?
Answer: The IC50 was no more than 0.5 µM.

Question: Which IC50 does the source give for `COCCOc1cc(Oc2ccc(Nc3cc(-c4ccccc4)nc(N)n3)cc2)ccn1` [Example 84, N^4-(4-{[2-(2-methoxyethoxy)pyridin-4-yl]oxy}phenyl)-6-phenylpyrimidine-2,4-diamine] here?
Answer: The IC50 was no more than 0.5 µM.

Question: For `Nc1ccc(Cc2ccc(Nc3cc(-c4ccccc4)nc(N)n3)cc2)cc1` [Example 88, N^4*-[4-(4-aminobenzyl)phenyl]-6-phenylpyrimidine-2,4-diamine], which IC50 is on record?
Answer: Its IC50 is no more than 0.5 µM.

Question: How did the IC50 turn out when `CN(C)C(=O)NCc1cc(Oc2ccc(Nc3cc(-c4ccccc4)nc(N)n3)cc2)ccn1` [Example 99, N′-[(4-{4-[(2-amino-6-phenylpyrimidin-4-yl)amino]phenoxy}pyridin-2-yl)methyl]-N,N-dimethylurea] was run?
Answer: Its IC50 is no more than 0.5 µM.

Question: With `Nc1nc(Nc2cccc(Oc3ccnc(Cl)c3)c2)cc(-c2ccccc2)n1` [Example 113, N4*-{3-[(2-chloropyridin-4-yl)oxy]phenyl}-6-phenylpyrimidine-2,4-diamine] as the compound, how does the IC50 read?
Answer: Its IC50 is no more than 0.5 µM.

Question: For `Nc1nc(Nc2ccc(Oc3ccnc(Cl)c3)cc2)cc(-c2ccc(F)cc2)n1` [Example 114, N4*-{4-[(2-chloropyridin-4-yl)oxy]phenyl}-6-(4-fluorophenyl)pyrimidine-2,4-diamine], which IC50 is on record?
Answer: Its IC50 is no more than 0.5 µM.
